Results on one compound are retold here after patent US10995101B2, “2-oxo-thiazole derivatives as A2A inhibitors and compounds for use in the treatment of cancers” (iTeos Therapeutics SA, priority 2017, dated 2021).

One data set is described as follows: in vitro. As to conditions: human, Caco-2, pH 7.4.
In another data set the target is A2AR (Mus musculus, UniProt Q60613). As to conditions: 10 mg/kg PO 30 min prior to CGS21680; score observed in at least 60-100% of mice for 30 minutes.
Chain of A2AR (Q60613 whole entry): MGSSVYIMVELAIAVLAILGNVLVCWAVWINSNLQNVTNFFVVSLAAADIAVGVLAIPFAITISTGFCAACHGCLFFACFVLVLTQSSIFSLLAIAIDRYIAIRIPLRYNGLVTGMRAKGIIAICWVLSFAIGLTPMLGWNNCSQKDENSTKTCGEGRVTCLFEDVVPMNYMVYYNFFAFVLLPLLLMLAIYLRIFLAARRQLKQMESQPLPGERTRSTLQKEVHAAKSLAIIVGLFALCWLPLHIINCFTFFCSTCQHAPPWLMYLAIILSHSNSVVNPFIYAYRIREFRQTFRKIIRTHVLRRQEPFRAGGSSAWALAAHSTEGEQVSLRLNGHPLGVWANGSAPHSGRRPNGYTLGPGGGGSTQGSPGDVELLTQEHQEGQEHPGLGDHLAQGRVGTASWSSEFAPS

In the case of `NC(=O)COc1cc(N2CCN(CCn3c(=O)sc4c3nc(N)n3nc(-c5ccco5)nc43)CC2)c(F)cc1F` [Compound 4, 2-(5-(4-(2-(5-amino-8-(furan-2-yl)-2-oxothiazolo[5,4-e][1,2,4]triazolo [1,5-c]pyrimidin-3(2H)-yl)ethyl)piperazin-1-yl)-2,4-difluorophenoxy)acetamide], in “in vitro”, the efflux ratio (as a rule, the permeability from basolateral to apical divided by that in the opposite direction, in the common usage) at 120 min, 2 μM turned out to be 123. The “Score (locomotion / immobility)” value on A2AR was “+++”.
